The values below come from US20090156518A1, “STABLE PHARMACEUTICAL COMPOSITION COMPRISING BETA-LACTAM ANTIBIOTIC AND BUFFER” (priority 2006, published 2009).

The data set is described as follows: amounts of β-lactam antibiotic, β-lactamase inhibitor (C18 reverse-phase LC, UV-VIS) and aminoglycoside (HPLC-ELSD) in solution over time. Format: physicochemical.
Setting [1] is: Example 10: mezlocillin sodium 2 g, sulbactam sodium 0.5 g, etimicin sulfate 200 mg, citrate pH 6.5, 200 mL water, room temperature, Time 0 h.
Where [2] appears, read: Example 10: mezlocillin sodium 2 g, sulbactam sodium 0.5 g, etimicin sulfate 200 mg, citrate pH 6.5, 200 mL water, room temperature, Time 1 h.
[3] abbreviates: Example 10: mezlocillin sodium 2 g, sulbactam sodium 0.5 g, etimicin sulfate 200 mg, citrate pH 6.5, 200 mL water, room temperature, Time 2 h.
Where [4] appears, read: Example 11: freeze-dried mezlocillin sodium, sulbactam sodium, citrate pH 6.5, 7 days 0° C., in 100 mL 5% fructose + etimicin sulfate 200 mg, Time 0 h.
[5] abbreviates: Example 11: freeze-dried mezlocillin sodium, sulbactam sodium, citrate pH 6.5, 7 days 0° C., in 100 mL 5% fructose + etimicin sulfate 200 mg, Time 1 h.
The mark [6] stands for this setting: Example 11: freeze-dried mezlocillin sodium, sulbactam sodium, citrate pH 6.5, 7 days 0° C., in 100 mL 5% fructose + etimicin sulfate 200 mg, Time 2 h.
Where [7] appears, read: Example 11: freeze-dried mezlocillin sodium, sulbactam sodium, citrate pH 6.5, 7 days 0° C., in 100 mL 5% fructose + etimicin sulfate 200 mg, Time 4 h.
[8] abbreviates: Example 11: freeze-dried mezlocillin sodium, sulbactam sodium, citrate pH 6.5, 7 days 0° C., in 100 mL 5% fructose + etimicin sulfate 200 mg, Time 6 h.
Where [9] appears, read: Example 11: freeze-dried mezlocillin sodium, sulbactam sodium, citrate pH 6.5, 7 days 0° C., in 100 mL 5% fructose + etimicin sulfate 200 mg, Time 8 h.

Protocol: The amounts of β-lactam antibiotics and β-lactamase inhibitor were determined using C18 reverse-phase LC and UV-VIS detector (Tianjin Hemay BioTech Co., Ltd., analysis method No. HM-K-03). The content of aminoglycoside antibiotics was measured using reverse-phase HPLC and evaporation-light-scattering detector (ELSD detector) (Tianjin Hemay BioTech Co., Ltd., analysis method No. HM-K-08). The amount of antibiotic component at each time point was expressed as a percentage with respect to the amount at the initial time (herein defined as 100%). The relative amount of each antibiotic component in the composition at each time point was expressed as peak area ratio with respect to the corresponding peak area of an external standard.

As to `CC1(C)S[C@@H]2[C@H](NC(=O)[C@H](NC(=O)N3CCN(S(C)(=O)=O)C3=O)c3ccccc3)C(=O)N2[C@H]1C(=O)O` [Mezlocillin sodium], the “amount of component as percentage with respect to the amount at the initial time” value (“amount of component as percentage” for short) amounted to 96.48% under setting [1]; 95.90% under setting [2]; 71.70% under setting [3]; 91.78% (Example 10: mezlocillin sodium 2 g, sulbactam sodium 0.5 g, etimicin sulfate 200 mg, citrate pH 6.5, 200 mL water, room temperature, Time 4 h); 93.08% (Example 10: mezlocillin sodium 2 g, sulbactam sodium 0.5 g, etimicin sulfate 200 mg, citrate pH 6.5, 200 mL water, room temperature, Time 6 h); 97.69% (Example 10: mezlocillin sodium 2 g, sulbactam sodium 0.5 g, etimicin sulfate 200 mg, citrate pH 6.5, 200 mL water, room temperature, Time 8 h). The “amount of component as percentage” value is, setting by setting: under setting [4], 116.6%; under setting [5], 94.83%; under setting [6], 91.86%; under setting [7], 91.96%; under setting [8], 91.52%; under setting [9], 98.56%. In addition, the “amount of component as percentage” value runs as follows: (Example 13: freeze-dried mezlocillin sodium, citrate pH 6, 7 days 0° C., in 100 mL 5% fructose + etimicin sulfate 200 mg, Time 0 h) 95.05%; (Example 13: freeze-dried mezlocillin sodium, citrate pH 6, 7 days 0° C., in 100 mL 5% fructose + etimicin sulfate 200 mg, Time 1 h) 96.63%; (Example 13: freeze-dried mezlocillin sodium, citrate pH 6, 7 days 0° C., in 100 mL 5% fructose + etimicin sulfate 200 mg, Time 2 h) 89.33%; (Example 13: freeze-dried mezlocillin sodium, citrate pH 6, 7 days 0° C., in 100 mL 5% fructose + etimicin sulfate 200 mg, Time 4 h) 98.72%; (Example 13: freeze-dried mezlocillin sodium, citrate pH 6, 7 days 0° C., in 100 mL 5% fructose + etimicin sulfate 200 mg, Time 6 h) 92.73%; (Example 13: freeze-dried mezlocillin sodium, citrate pH 6, 7 days 0° C., in 100 mL 5% fructose + etimicin sulfate 200 mg, Time 8 h) 92.51%.

Regarding `CCN[C@@H]1C[C@H](N)[C@@H](O[C@H]2O[C@H](CN)CC[C@H]2N)[C@H](O)[C@H]1O[C@H]1OC[C@](C)(O)[C@H](NC)[C@H]1O.O=S(=O)(O)O` [Etimicin sulfate, etimicin sulfate], the “amount of component as percentage” value came to 108.9% (Example 6: freeze-dried cefoperazone sodium 4 g, sulbactam sodium 1 g, citrate pH 6.75, + etimicin sulfate 200 mg, 7 days 0° C., dissolved in 100 mL water, Time 0 h); 100.2% (Example 6: freeze-dried cefoperazone sodium 4 g, sulbactam sodium 1 g, citrate pH 6.75, + etimicin sulfate 200 mg, 7 days 0° C., dissolved in 100 mL water, Time 1 h); 100.5% (Example 6: freeze-dried cefoperazone sodium 4 g, sulbactam sodium 1 g, citrate pH 6.75, + etimicin sulfate 200 mg, 7 days 0° C., dissolved in 100 mL water, Time 2 h); 100.4% (Example 6: freeze-dried cefoperazone sodium 4 g, sulbactam sodium 1 g, citrate pH 6.75, + etimicin sulfate 200 mg, 7 days 0° C., dissolved in 100 mL water, Time 4 h); 100.4% (Example 6: freeze-dried cefoperazone sodium 4 g, sulbactam sodium 1 g, citrate pH 6.75, + etimicin sulfate 200 mg, 7 days 0° C., dissolved in 100 mL water, Time 6 h); 97.50% (Example 6: freeze-dried cefoperazone sodium 4 g, sulbactam sodium 1 g, citrate pH 6.75, + etimicin sulfate 200 mg, 7 days 0° C., dissolved in 100 mL water, Time 8 h). The “amount of component as percentage” value was found to be 100.1% under setting [1]; 100.6% under setting [2]; 99.79% under setting [3]; 100.1% under setting [4]; 100.4% under setting [5]; 99.31% under setting [6]. Moreover, the “amount of component as percentage” value under setting [7] came to 99.56%, the “amount of component as percentage” value under setting [8] is 99.61% and the “amount of component as percentage” value under setting [9] was 99.25%.

Turning to `NCC[C@H](O)C(=O)N[C@@H]1C[C@H](N)[C@@H](O[C@H]2O[C@H](CN)[C@@H](O)[C@H](O)[C@H]2O)[C@H](O)[C@H]1O[C@H]1O[C@H](CO)[C@@H](O)[C@H](N)[C@H]1O.O=S(=O)(O)O.O=S(=O)(O)O` [Amikacin sulfate, amikacin sulfate], the “amount of component as percentage” value (Example 5: freeze-dried cefoperazone sodium 4 g, sulbactam sodium 0.5 g, citrate pH 6.75, + amikacin sulfate 500 mg, 7 days 0° C., dissolved in 100 mL water, Time 0 h) came out at 98.98%; the “amount of component as percentage” value (Example 5: freeze-dried cefoperazone sodium 4 g, sulbactam sodium 0.5 g, citrate pH 6.75, + amikacin sulfate 500 mg, 7 days 0° C., dissolved in 100 mL water, Time 1 h) was determined as 98.73%; the “amount of component as percentage” value (Example 5: freeze-dried cefoperazone sodium 4 g, sulbactam sodium 0.5 g, citrate pH 6.75, + amikacin sulfate 500 mg, 7 days 0° C., dissolved in 100 mL water, Time 2 h) was found to be 98.52%; the “amount of component as percentage” value (Example 5: freeze-dried cefoperazone sodium 4 g, sulbactam sodium 0.5 g, citrate pH 6.75, + amikacin sulfate 500 mg, 7 days 0° C., dissolved in 100 mL water, Time 4 h) was found to be 98.41%; the “amount of component as percentage” value (Example 5: freeze-dried cefoperazone sodium 4 g, sulbactam sodium 0.5 g, citrate pH 6.75, + amikacin sulfate 500 mg, 7 days 0° C., dissolved in 100 mL water, Time 6 h) came out at 98.76%; the “amount of component as percentage” value (Example 17: freeze-dried cefoperazone sodium 4 g, sulbactam sodium 1 g, citrate pH 6.75, 7 days 0° C., in 100 mL water, 10 mL + amikacin sulfate 40 mg, room temperature, Time 0 h) came out at 99.91%. Besides, the “amount of component as percentage” value worked out at 99.50% (Example 17: freeze-dried cefoperazone sodium 4 g, sulbactam sodium 1 g, citrate pH 6.75, 7 days 0° C., in 100 mL water, 10 mL + amikacin sulfate 40 mg, room temperature, Time 1 h); 98.88% (Example 17: freeze-dried cefoperazone sodium 4 g, sulbactam sodium 1 g, citrate pH 6.75, 7 days 0° C., in 100 mL water, 10 mL + amikacin sulfate 40 mg, room temperature, Time 2 h); 99.45% (Example 17: freeze-dried cefoperazone sodium 4 g, sulbactam sodium 1 g, citrate pH 6.75, 7 days 0° C., in 100 mL water, 10 mL + amikacin sulfate 40 mg, room temperature, Time 4 h); 98.56% (Example 17: freeze-dried cefoperazone sodium 4 g, sulbactam sodium 1 g, citrate pH 6.75, 7 days 0° C., in 100 mL water, 10 mL + amikacin sulfate 40 mg, room temperature, Time 6 h); 99.36% (Example 17: freeze-dried cefoperazone sodium 4 g, sulbactam sodium 1 g, citrate pH 6.75, 7 days 0° C., in 100 mL water, 10 mL + amikacin sulfate 40 mg, room temperature, Time 8 h).
